Test results published in patent publication US7750040B2, “Thiophene derivatives” (priority 2004, dated 2010).

What follows are compounds tested against recombinant human S1P1 receptor (Homo sapiens, UniProt P21453) (assay: GTPγS assay to determine EC50 values). Conditions: 35S-GTPγS binding, membrane preparations of CHO cells expressing recombinant human S1P1 receptor.
Assay type: biochemical
Protocol: The pH was 7.4. Test compounds are dissolved and diluted in 100% DMSO and pre-incubated at room temperature for 30 min in 150 μl of the above assay buffer, in the absence of ^35S-GTPγS. After addition of 50 μl of ^35S-GTPγS, the assay is incubated for 1 h at room temperature. […] Membrane-bound ^35S-GTPγS is measured with a TopCount from Packard Biosciences.
Specific binding is determined by subtracting non-specific binding from maximal binding. Maximal binding is the amount of cpm bound to the Multiscreen plate in the presence of 10 μM of S1P. Non-specific binding is the amount of binding in the absence of an agonist in the assay.

recombinant human S1P1 receptor, sequence (P21453 whole entry): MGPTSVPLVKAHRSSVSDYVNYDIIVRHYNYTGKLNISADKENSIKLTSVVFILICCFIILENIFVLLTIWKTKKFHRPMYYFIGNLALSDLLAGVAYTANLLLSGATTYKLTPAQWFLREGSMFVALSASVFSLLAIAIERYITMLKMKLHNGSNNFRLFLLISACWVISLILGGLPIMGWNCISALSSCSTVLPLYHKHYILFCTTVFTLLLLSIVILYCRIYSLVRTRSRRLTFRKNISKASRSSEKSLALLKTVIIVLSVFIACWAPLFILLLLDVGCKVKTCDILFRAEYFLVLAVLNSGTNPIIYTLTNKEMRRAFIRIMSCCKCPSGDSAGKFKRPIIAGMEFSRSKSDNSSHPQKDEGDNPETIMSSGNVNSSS

EC50 [nM] | SMILES
164 | COc1cc(OCC(C)O)ccc1CNC(=O)c1sc(C)c2c1C[C@@H]1[C@H]2C1(C)C (mixture of isomers) [Example 24, (1aS,5aR)-1,1,2-trimethyl-1,1a,5,5a-tetrahydro-3-thia-cyclopropa[a]pentalene-4-carboxylic acid 4-((R/S)-2-hydroxy-propoxy)-2-methoxy-benzylamide]
75 | Cc1cc(CNC(=O)c2sc(C)c3c2C[C@@H]2[C@H]3C2(C)C)cc(C)c1OC[C@@H](O)CO [Example 5, (1aS,5aR)-1,1,2-trimethyl-1,1a,5,5a-tetrahydro-3-thia-cyclopropa[a]pentalene-4-carboxylic acid 4-((S)-2,3-dihydroxy-propoxy)-3,5-dimethyl-benzylamide]
183 | COc1cc(OC[C@@H](O)CO)ccc1CNC(=O)c1sc(C)c2c1C[C@@H]1[C@H]2C1(C)C [Example 7, (1aS,5aR)-1,1,2-Trimethyl-1,1a,5,5a-tetrahydro-3-thia-cyclopropa[a]pentalene-4-carboxylic acid 4-((S)-2,3-dihydroxy-propoxy)-2-methoxy-benzylamide]
300 | COc1cc(OCCF)ccc1CNC(=O)c1sc(C)c2c1C[C@@H]1[C@H]2C1(C)C [Example 36, (1aS,5aR)-1,1,2-Trimethyl-1,1a,5,5a-tetrahydro-3-thia-cyclopropa[a]pentalene-4-carboxylic acid 4-(2-fluoro-ethoxy)-2-methoxy-benzylamide]
16 | COc1ccccc1CCC(=O)c1sc(C)c2c1C[C@@H]1[C@H]2C1(C)C [Example 48, 3-(2-methoxy-phenyl)-1-((1aS,5aR)-1,1,2-trimethyl-1,1a,5,5a-tetrahydro-3-thia-cyclopropa[a]penta-len-4-yl)-propan-1-one]
2 | COc1cc(OC[C@@H](O)CO)ccc1CCC(=O)c1sc(C)c2c1C[C@@H]1[C@H]2C1(C)C [Example 49, 3-[4-((S)-2,3-Dihydroxy-propoxy)-2-methoxy-phenyl]-1-((1aS,5aR)-1,1,2-trimethyl-1,1a,5,5a-tetrahydro-3-thia-cyclopropa[a]pentalen-4-yl)-propan-1-one]
1 | Cc1cc(CCC(=O)c2sc(C)c3c2C[C@@H]2[C@H]3C2(C)C)cc(Cl)c1OC[C@H](O)CO [Example 71, 3-[3-Chloro-4-((R)-2,3-dihydroxy-propoxy)-5-methyl-phenyl]-1-((1aS,5aR)-1,1,2-trimethyl-1,1a,5,5a-tetrahydro-3-thia-cyclopropa[a]pentalen-4-yl)-propan-1-one]
5 | Cc1cc(CCC(=O)c2sc(C)c3c2C[C@@H]2[C@H]3C2(C)C)cc(Cl)c1OCC(C)O (stereo partly drawn) [Example 74, 3-[3-Chloro-4-(2-hydroxy-propoxy)-5-methyl-phenyl]-1-((1aS,5aR)-1,1,2-trimethyl-1,1a,5,5a-tetrahydro-3-thia-cyclopropa[a]pentalen-4-yl)-propan-1-one]
3 | Cc1sc(C(=O)CCc2ccc(OC[C@@H](O)CO)cc2Cl)c2c1[C@H]1[C@@H](C2)C1(C)C [Example 81, 3-[2-Chloro-4-((S)-2,3-dihydroxy-propoxy)-phenyl]-1-((1aS,5aR)-1,1,2-trimethyl-1,1a,5,5a-tetrahydro-3-thia-cyclopropa[a]pentalen-4-yl)-propan-1-one]
0.6 | CCc1sc(C(=O)CCc2cc(C)c(OC[C@@H](O)CO)c(C)c2)c2c1[C@@H]1[C@H](C2)C1(C)C [Example 137, 3-[4-((S)-2,3-Dihydroxy-propoxy)-3,5-dimethyl-phenyl]-1-((1aR,5aS)-2-ethyl-1,1-dimethyl-1,1a,5,5a-tetrahydro-3-thia-cyclopropa[a]pentalen-4-yl)-propan-1-one]
4 | CCc1sc(C(=O)CCc2cc(C)c(OCCCO)c(C)c2)c2c1[C@@H]1[C@H](C2)C1(C)C [Example 139, 1-((1aR,5aS)-2-Ethyl-1,1-dimethyl-1,1a,5,5a-tetrahydro-3-thia-cyclopropa[a]pentalen-4-yl)-3-[4-(3-hydroxy-propoxy)-3,5-dimethyl-phenyl]-propan-1-one]
9 | Cc1cc(C)cc(NCC(=O)c2sc(C)c3c2C[C@@H]2[C@H]3C2(C)C)c1 [Example 157, 2-(3,5-Dimethyl-phenylamino)-1-((1aS,5aR)-1,1,2-trimethyl-1,1a,5,5a-tetrahydro-3-thia-cyclopropa[a]pentalen-4-yl)-ethanone]
3 | Cc1sc(C(=O)CNc2ccc(CCO)cc2)c2c1[C@H]1[C@@H](C2)C1(C)C [Example 163, 2-[4-(2-Hydroxy-ethyl)-phenylamino]-1-((1aS,5aR)-1,1,2-trimethyl-1,1a,5,5a-tetrahydro-3-thia-cyclopropa[a]pentalen-4-yl)-ethanone]

What follows are compounds tested on circulating lymphocytes (assay: Assessment of in vivo efficacy: circulating lymphocytes after oral administration). Conditions: 3 h after oral administration of 30 mg/kg, normotensive male Wistar rats, compared to vehicle group; mean±SEM.
Protocol: The efficacy of the compounds of Formula (I) is assessed by measuring the circulating lymphocytes after oral administration of 30 mg/kg of a compound of Formula (I) to normotensive male Wistar rats. The animals are housed in climate-controlled conditions with a 12 h-light/dark cycle, and have free access to normal rat chow and drinking water. […] Full blood is subjected to hematology using Advia Hematology system (Bayer Diagnostics, Zürich, Switzerland).
All data are presented as mean±SEM. Statistical analyses are performed by analysis of variance (ANOVA) using Statistica (StatSoft) and the Student-Newman-Keuls procedure for multiple comparisons. The null hypothesis is rejected when p<0.05.

SMILES | Lymphocyte counts [%]
COc1cc(OCC(C)O)ccc1CNC(=O)c1sc(C)c2c1C[C@@H]1[C@H]2C1(C)C (mixture of isomers) [Example 24, (1aS,5aR)-1,1,2-trimethyl-1,1a,5,5a-tetrahydro-3-thia-cyclopropa[a]pentalene-4-carboxylic acid 4-((R/S)-2-hydroxy-propoxy)-2-methoxy-benzylamide] | −40 ± 4
COc1cc(OC[C@@H](O)CO)ccc1CNC(=O)c1sc(C)c2c1C[C@@H]1[C@H]2C1(C)C [Example 7, (1aS,5aR)-1,1,2-Trimethyl-1,1a,5,5a-tetrahydro-3-thia-cyclopropa[a]pentalene-4-carboxylic acid 4-((S)-2,3-dihydroxy-propoxy)-2-methoxy-benzylamide] | −46 ± 3
Cc1cc(CCC(=O)c2sc(C)c3c2C[C@@H]2[C@H]3C2(C)C)cc(C)c1OC[C@@H](O)CO [Example 51, 3-[4-((S)-2,3-Dihydroxy-propoxy)-3,5-dimethyl-phenyl]-1-((1aS,5aR)-1,1,2-trimethyl-1,1a,5,5a-tetrahydro-3-thia-cyclopropa[a]pentalen-4-yl)-propan-1-one] | −44 ± 4
Cc1sc(C(=O)CCc2ccc(OC[C@@H](O)CO)c(Cl)c2)c2c1[C@H]1[C@@H](C2)C1(C)C [Example 75, 3-[3-Chloro-4-((S)-2,3-dihydroxy-propoxy)-phenyl]-1-((1aS,5aR)-1,1,2-trimethyl-1,1a,5,5a-tetrahydro-3-thia-cyclopropa[a]pentalen-4-yl)-propan-1-one] | −57 ± 5
Cc1cc(CCC(=O)c2sc(C)c3c2C[C@@H]2[C@H]3C2(C)C)ccc1OC[C@@H](O)CO [Example 86, 3-[4-((S)-2,3-Dihydroxy-propoxy)-3-methyl-phenyl]-1-((1aS,5aR)-1,1,2-trimethyl-1,1a,5,5a-tetrahydro-3-thia-cyclopropa[a]pentalen-4-yl)-propan-1-one] | −47 ± 4
